Measurements as given in PubChem BioAssay (NCI).
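Step 1: Grow cells in 96-well plates. Step 2: Expose to compound for 48 hours at 5 concentrations. Step 3: Interpolate endpoints linearly; if unreached, use highest concentration. TGI denotes the concentration required for complete inhibition of growth.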

Experiments:
Test in all cases: growth of human tumour cells (NCI), 48 h
HL-60(TB) leukemia = test system: HL-60(TB) leukemia
SF-539 CNS = test system: SF-539 CNS
SN12C renal = test system: SN12C renal
IGROV1 ovarian = test system: IGROV1 ovarian
OVCAR-3 ovarian = test system: OVCAR-3 ovarian
NCI-H460 lung = test system: NCI-H460 lung
COLO 205 colon = test system: COLO 205 colon
HCT-116 colon = test system: HCT-116 colon
SNB-75 CNS = test system: SNB-75 CNS
HOP-92 NSCLC = test system: HOP-92 NSCLC
A498 renal = test system: A498 renal
MOLT-4 leukemia = test system: MOLT-4 leukemia
SNB-78 CNS = test system: SNB-78 CNS
NCI-H522 lung = test system: NCI-H522 lung
UACC-257 melanoma = test system: UACC-257 melanoma
CCRF-CEM leukemia = test system: CCRF-CEM leukemia
A549 NSCLC = test system: A549 NSCLC
MALME-3M melanoma = test system: MALME-3M melanoma
HT29 colon = test system: HT29 colon
786-0 renal = test system: 786-0 renal
ACHN renal = test system: ACHN renal
TK-10 renal = test system: TK-10 renal
UACC-62 melanoma = test system: UACC-62 melanoma
SK-MEL-2 melanoma = test system: SK-MEL-2 melanoma
U251 CNS = test system: U251 CNS
LXFL 529 NSCLC = test system: LXFL 529 NSCLC
OVCAR-4 ovarian = test system: OVCAR-4 ovarian
SK-MEL-5 melanoma = test system: SK-MEL-5 melanoma
SW-620 colon = test system: SW-620 colon
HCT-15 colon = test system: HCT-15 colon
HCC-2998 colon = test system: HCC-2998 colon
KM12 colon = test system: KM12 colon
SF-295 CNS = test system: SF-295 CNS
OVCAR-8 ovarian = test system: OVCAR-8 ovarian
KM20L2 colon = test system: KM20L2 colon
SK-MEL-28 melanoma = test system: SK-MEL-28 melanoma
M19-MEL melanoma = test system: M19-MEL melanoma
SF-268 CNS = test system: SF-268 CNS
K-562 leukemia = test system: K-562 leukemia
DMS 273 small cell lung = test system: DMS 273 small cell lung
RPMI-8226 leukemia = test system: RPMI-8226 leukemia
DMS 114 small cell lung = test system: DMS 114 small cell lung
SNB-19 CNS = test system: SNB-19 CNS
NCI-H23 lung = test system: NCI-H23 lung
OVCAR-5 ovarian = test system: OVCAR-5 ovarian
EKVX NSCLC = test system: EKVX NSCLC
HOP-62 NSCLC = test system: HOP-62 NSCLC
SK-OV-3 ovarian = test system: SK-OV-3 ovarian
XF 498 CNS = test system: XF 498 CNS
DLD-1 colon = test system: DLD-1 colon
LOX IMVI melanoma = test system: LOX IMVI melanoma
M14 melanoma = test system: M14 melanoma
UO-31 renal = test system: UO-31 renal
CAKI-1 renal = test system: CAKI-1 renal
NCI-H226 lung = test system: NCI-H226 lung
RXF 393 renal = test system: RXF 393 renal
SR leukemia = test system: SR leukemia
HOP-18 NSCLC = test system: HOP-18 NSCLC

Molecule `Nc1ccc(C(=O)NN2C(=O)C(Cl)C2c2cccc([N+](=O)[O-])c2)cc1` (stereo unspecified) has a TGI (HL-60(TB) leukemia) of 41.4 µM, a TGI (SF-539 CNS) of 35.1 µM and a TGI (SN12C renal) of 36.9 µM. It also gave a TGI (IGROV1 ovarian) of 30.8 µM, a TGI (OVCAR-3 ovarian) of 41.8 µM and a TGI (NCI-H460 lung) of over 100 µM. The TGI (COLO 205 colon) was 35 µM, the TGI (HCT-116 colon) was 34.2 µM and the TGI (SNB-75 CNS) was 35.6 µM. For the same molecule, the TGI (HOP-92 NSCLC) was 40.7 µM, the TGI (A498 renal) was 45.4 µM and the TGI (MOLT-4 leukemia) was 37.5 µM. For the same molecule, the TGI (SNB-78 CNS) was over 100 µM, the TGI (NCI-H522 lung) was 25.1 µM and the TGI (UACC-257 melanoma) was 51 µM. The TGI (CCRF-CEM leukemia) was 30.4 µM, the TGI (A549 NSCLC) was over 100 µM and the TGI (MALME-3M melanoma) was 35.6 µM. It also gave a TGI (HT29 colon) of 37.9 µM, a TGI (786-0 renal) of 33.1 µM and a TGI (ACHN renal) of 50.9 µM. The TGI (TK-10 renal) was 35.3 µM, the TGI (UACC-62 melanoma) was 37.1 µM and the TGI (SK-MEL-2 melanoma) was 35.7 µM. For the same molecule, the TGI (U251 CNS) was 27.3 µM, the TGI (LXFL 529 NSCLC) was 34.9 µM and the TGI (OVCAR-4 ovarian) was 33.4 µM. The TGI (SK-MEL-5 melanoma) was 34.3 µM, the TGI (SW-620 colon) was 40 µM and the TGI (HCT-15 colon) was 45.7 µM. The TGI (HCC-2998 colon) was 39.5 µM, the TGI (KM12 colon) was 30.6 µM and the TGI (SF-295 CNS) was 43.1 µM. The TGI (OVCAR-8 ovarian) was 39.3 µM, the TGI (KM20L2 colon) was 43.6 µM and the TGI (SK-MEL-28 melanoma) was 38.5 µM. It also gave a TGI (M19-MEL melanoma) of 34.1 µM, a TGI (SF-268 CNS) of 38.6 µM and a TGI (K-562 leukemia) of 47.5 µM. The TGI (DMS 273 small cell lung) was 32.5 µM, the TGI (RPMI-8226 leukemia) was 71.2 µM and the TGI (DMS 114 small cell lung) was 36.5 µM. It also gave a TGI (SNB-19 CNS) of 32.1 µM, a TGI (NCI-H23 lung) of 34.5 µM and a TGI (OVCAR-5 ovarian) of 37.7 µM. The TGI (EKVX NSCLC) was 47.7 µM, the TGI (HOP-62 NSCLC) was 41.6 µM and the TGI (SK-OV-3 ovarian) was 33.3 µM. The TGI (XF 498 CNS) was 26.5 µM, the TGI (DLD-1 colon) was 34.7 µM and the TGI (LOX IMVI melanoma) was 25.1 µM. The TGI (M14 melanoma) was 39.6 µM, the TGI (UO-31 renal) was 31.3 µM and the TGI (CAKI-1 renal) was 36 µM. It also gave a TGI (NCI-H226 lung) of 36.8 µM.
`CCCC(=O)OCC(O)CO` (stereo unspecified) was tested, and the TGI (HL-60(TB) leukemia) was over 5000 µM, the TGI (SF-539 CNS) was over 5000 µM and the TGI (SN12C renal) was over 5000 µM. The TGI (IGROV1 ovarian) was over 5000 µM, the TGI (NCI-H460 lung) was over 5000 µM and the TGI (COLO 205 colon) was over 5000 µM. For the same molecule, the TGI (HCT-116 colon) was over 5000 µM, the TGI (SNB-75 CNS) was over 5000 µM and the TGI (HOP-92 NSCLC) was over 5000 µM. It also gave a TGI (MOLT-4 leukemia) of over 5000 µM, a TGI (SNB-78 CNS) of over 5000 µM and a TGI (NCI-H522 lung) of over 5000 µM. For the same molecule, the TGI (UACC-257 melanoma) was over 5000 µM, the TGI (CCRF-CEM leukemia) was over 5000 µM and the TGI (A549 NSCLC) was over 5000 µM. The TGI (MALME-3M melanoma) was over 5000 µM, the TGI (HT29 colon) was over 5000 µM and the TGI (786-0 renal) was over 5000 µM. It also gave a TGI (ACHN renal) of over 5000 µM, a TGI (TK-10 renal) of over 5000 µM and a TGI (UACC-62 melanoma) of over 5000 µM. It also gave a TGI (SK-MEL-2 melanoma) of over 5000 µM, a TGI (U251 CNS) of over 5000 µM and a TGI (LXFL 529 NSCLC) of over 5000 µM. For the same molecule, the TGI (OVCAR-4 ovarian) was over 5000 µM, the TGI (SK-MEL-5 melanoma) was over 5000 µM and the TGI (SW-620 colon) was over 5000 µM. The TGI (RXF 393 renal) was over 5000 µM, the TGI (HCT-15 colon) was over 5000 µM and the TGI (KM12 colon) was over 5000 µM. It also gave a TGI (SF-295 CNS) of over 5000 µM, a TGI (OVCAR-8 ovarian) of over 5000 µM and a TGI (SR leukemia) of over 5000 µM. For the same molecule, the TGI (SK-MEL-28 melanoma) was over 5000 µM, the TGI (M19-MEL melanoma) was over 5000 µM and the TGI (SF-268 CNS) was over 5000 µM. It also gave a TGI (K-562 leukemia) of over 5000 µM, a TGI (DMS 273 small cell lung) of over 5000 µM and a TGI (RPMI-8226 leukemia) of over 5000 µM. The TGI (DMS 114 small cell lung) was over 5000 µM, the TGI (NCI-H23 lung) was over 5000 µM and the TGI (OVCAR-5 ovarian) was 4700 µM. For the same molecule, the TGI (HOP-62 NSCLC) was over 5000 µM, the TGI (SK-OV-3 ovarian) was over 5000 µM and the TGI (DLD-1 colon) was over 5000 µM. For the same molecule, the TGI (HOP-18 NSCLC) was over 5000 µM, the TGI (LOX IMVI melanoma) was over 5000 µM and the TGI (M14 melanoma) was over 5000 µM. For the same molecule, the TGI (UO-31 renal) was over 5000 µM, the TGI (CAKI-1 renal) was over 5000 µM and the TGI (NCI-H226 lung) was over 5000 µM.
